Measured values from US8110566B2, “Therapeutic agents 713” (AstraZeneca AB, priority 2009, dated 2012).

Key:
[1] = target: T1, human Melanin Concentrating Hormone receptor 1 (MCHR1) (Homo sapiens, UniProt Q99705); experiment: MCHr1 IC50 (MCH binding assay / MCHR1 receptor activation assay)
T1 construct: host or cells: CHO-K1 (membranes)

[2] = target: T2, human histamine H3 receptors (Homo sapiens, UniProt Q9Y5N1); experiment: Histamine H3 SPA with [3H]-N-α-methylhistamine and/or GTPγS binding assay
T2 construct: human histamine H3 receptors (full-length H3, the most prevalent brain isoform 445); host or cells: CHO-K1, stably expressing (membranes)
T2 sequence (Q9Y5N1 whole entry, canonical isoform): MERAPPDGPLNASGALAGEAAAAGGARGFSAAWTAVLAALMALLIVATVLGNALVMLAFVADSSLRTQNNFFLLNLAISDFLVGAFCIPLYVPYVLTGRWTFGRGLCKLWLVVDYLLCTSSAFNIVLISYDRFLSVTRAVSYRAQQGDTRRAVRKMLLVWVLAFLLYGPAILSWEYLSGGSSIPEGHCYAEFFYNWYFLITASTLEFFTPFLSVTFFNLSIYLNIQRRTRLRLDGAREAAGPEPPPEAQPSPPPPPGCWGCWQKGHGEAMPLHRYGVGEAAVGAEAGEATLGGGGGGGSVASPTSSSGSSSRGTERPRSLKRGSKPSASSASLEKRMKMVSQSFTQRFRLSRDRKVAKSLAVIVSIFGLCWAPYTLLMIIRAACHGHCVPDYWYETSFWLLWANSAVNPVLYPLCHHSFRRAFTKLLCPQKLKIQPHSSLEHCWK

T1 sequence (Q99705 whole entry): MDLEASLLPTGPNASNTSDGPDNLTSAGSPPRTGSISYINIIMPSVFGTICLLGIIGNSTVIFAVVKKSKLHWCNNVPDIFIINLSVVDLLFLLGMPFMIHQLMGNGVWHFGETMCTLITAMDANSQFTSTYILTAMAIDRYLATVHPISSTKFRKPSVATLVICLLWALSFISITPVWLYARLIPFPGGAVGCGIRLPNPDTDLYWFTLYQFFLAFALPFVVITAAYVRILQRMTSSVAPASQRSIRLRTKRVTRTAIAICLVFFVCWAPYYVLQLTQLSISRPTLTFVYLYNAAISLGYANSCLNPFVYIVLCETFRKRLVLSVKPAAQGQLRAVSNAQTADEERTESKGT

| Structure (SMILES) | IC50 [1] | IC50 [2] |
| --- | --- | --- |
| O=C(c1nnc(-c2ccccc2)o1)N1CC(Oc2ccc(CN3CC4(COC4)C3)cc2)C1 [Example 3, (3-(4-(2-Oxa-6-azaspiro[3.3]heptan-6-ylmethyl)phenoxy)azetidin-1-yl)(5-phenyl-1,3,4-oxadiazol-2-yl)methanone] | – | 0.8 µM |
| O=C(c1nnc(-c2ccccc2)o1)N1CC(Sc2ccc(CN3CC4(COC4)C3)cc2)C1 [Example 5, (3-(4-(2-Oxa-6-azaspiro[3.3]heptan-6-ylmethyl)phenylthio)azetidin-1-yl)(5-phenyl-1,3,4-oxadiazol-2-yl)methanone] | 0.017 µM | – |
| O=C(c1nnc(-c2ccc(F)cc2)o1)N1CC(Oc2ccc(CN3CC4(COC4)C3)cc2)C1 [Example 6, (3-(4-(2-Oxa-6-azaspiro[3.3]heptan-6-ylmethyl)phenoxy)azetidin-1-yl)(5-(4-fluorophenyl)-1,3,4-oxadiazol-2-yl)methanone] | 0.024 µM | – |
| O=C(c1nnc(-c2ccccc2)o1)N1CC(Oc2ccc(CN3CC4(COC4)C3)cc2Cl)C1 [Example 8, (3-(4-(2-Oxa-6-azaspiro[3.3]heptan-6-ylmethyl)-2-chlorophenoxy)azetidin-1-yl)(5-phenyl-1,3,4-oxadiazol-2-yl)methanone] | 0.024 µM | – |
| COc1ccc(-c2nnc(C(=O)N3CC(Oc4ccc(CN5CC6(C5)OCC6(C)C)cc4)C3)o2)cc1 [Example 9, (3-(4-((3,3-Dimethyl-1-oxa-6-azaspiro[3.3]heptan-6-yl)methyl)phenoxy)azetidin-1-yl)(5-(4-methoxyphenyl)-1,3,4-oxadiazol-2-yl)methanone] | 0.027 µM | – |
| CC1(C)COC12CN(Cc1ccc(OC3CN(C(=O)c4nnc(-c5ccccc5)o4)C3)c(Cl)c1)C2 [Example 10, (3-(2-Chloro-4-((3,3-dimethyl-1-oxa-6-azaspiro[3.3]heptan-6-yl)methyl)phenoxy)azetidin-1-yl)(5-phenyl-1,3,4-oxadiazol-2-yl)methanone] | 0.03 µM | – |

More lines, in order of falling IC50 [1], values ahead:

| IC50 [1] | IC50 [2] | Structure (SMILES) |
| --- | --- | --- |
| 0.017 µM | 0.41 µM | O=C(c1nnc(-c2ccccc2)o1)N1CC(Oc2ccc(CN3CC4(COC4)C3)c(Cl)c2)C1 [Example 1, (3-(4-(2-Oxa-6-azaspiro[3.3]heptan-6-ylmethyl)-3-chlorophenoxy)azetidin-1-yl)(5-phenyl-1,3,4-oxadiazol-2-yl)methanone] |
| 0.012 µM | – | O=C(c1nnc(-c2ccc(OC(F)F)cc2)o1)N1CC(Oc2ccc(CN3CC4(COC4)C3)cc2)C1 [Example 7, (3-(4-(2-Oxa-6-azaspiro[3.3]heptan-6-ylmethyl)phenoxy)azetidin-1-yl)(5-(4-(difluoromethoxy)phenyl)-1,3,4-oxadiazol-2-yl)methanone] |
| 0.01 µM | 0.62 µM | O=C(c1nnc(-c2ccc(Cl)cc2)o1)N1CC(Oc2ccc(CN3CC4(COC4)C3)cc2)C1 [Example 2, (3-(4-(2-Oxa-6-azaspiro[3.3]heptan-6-ylmethyl)phenoxy)azetidin-1-yl)(5-(4-chlorophenyl)-1,3,4-oxadiazol-2-yl)methanone] |
